Laboratory results taken from paper PMC5146859, “Phase 1/2 study of pacritinib, a next generation JAK2/FLT3 inhibitor, in myelofibrosis or other myeloid malignancies” (Journal of Hematology & Oncology, 2016).
Where two headings read alike, the source gives them in different places.

Test: Phase 1 pharmacokinetics (liquid chromatography/tandem mass spectrometry)
Type: in vivo, human
Parameters: C24h, Mean / C24h, Median: unit not given here
Settings: for AUC(0-t) / Cmax / Tmax: human, in vivo
Experimental: In phase 1, full PK sampling was performed on days 1 and 15 of cycle 1 and day 1 of cycle 2. Trough PK samples were drawn prior to dosing on days 8 and 22 of cycle 1 and at 24, 48, and 72 h after dosing on day 25 of cycle 1. A sample was collected before dosing on day 1 of cycles 4, 7, and 10. Pacritinib concentrations were determined using a validated liquid chromatography/tandem mass spectrometry method. An analysis of clinical exposures from the HCl and citrate salts of pacritinib was performed comparing Day 1 PK data from 12 patients who received the HCl salt formulation in the 200 mg cohorts of this study and two other pacritinib studies [NCT00741871 and NCT00745550]) with six patients in the 200 mg cohort of this study who received the citrate salt formulation.

[1] = phase 1, Day 1, 200 mg (HCl and citrate salt cohorts pooled)
[2] = phase 1, Day 15, 200 mg (HCl and citrate salt cohorts pooled)

With C1=C/COCc2cc(ccc2OCCN2CCCC2)Nc2nccc(n2)-c2cccc(c2)COC/1 [pacritinib, 11-(2-pyrrolidin-1-yl-ethoxy)-14,19-dioxa-5,7,26-triaza-tetracyclo[19.3.1.1(2,6). 1(8,12)]heptacosa-1(25),2(26),3,5,8,10,12(27),16,21,23-decaene] the “Mean PK profiles, citrate vs HCl salts” value (200 mg, day 1, 6 patients citrate vs 12 patients HCl) was “similar”, the AUC(0-t) (oral, 100 mg, phase 1, Day 1, 100 mg, read-out: AUC0-24h, Mean) was 65.9 µg·h/mL and the AUC(0-t) (oral, 100 mg, phase 1, Day 1, 100 mg, read-out: AUC0-24h, Median) was 56 µg·h/mL. It also gave a Cmax (oral, 100 mg, phase 1, Day 1, 100 mg, read-out: Cmax, Mean) of 3700 ng/mL, a Cmax (oral, 100 mg, phase 1, Day 1, 100 mg, read-out: Cmax, Median) of 2910 ng/mL and a Tmax (oral, 100 mg, phase 1, Day 1, 100 mg, read-out: Tmax, Median) of 5 h. The AUC(0-t) (oral, 100 mg, phase 1, Day 15, 100 mg, read-out: AUC0-24h, Mean) was 120 µg·h/mL, the AUC(0-t) (oral, 100 mg, phase 1, Day 15, 100 mg, read-out: AUC0-24h, Median) was 121 µg·h/mL and the Cmax (oral, 100 mg, phase 1, Day 15, 100 mg, read-out: Cmax, Mean) was 6360 ng/mL. For the same compound, the Cmax (oral, 100 mg, phase 1, Day 15, 100 mg, read-out: Cmax, Median) was 6180 ng/mL, the Tmax (oral, 100 mg, phase 1, Day 15, 100 mg, read-out: Tmax, Median) was 3 h and the AUC(0-t) (oral, 150 mg, phase 1, Day 1, 150 mg, read-out: AUC0-24h, Mean) was 64.7 µg·h/mL. The AUC(0-t) (oral, 150 mg, phase 1, Day 1, 150 mg, read-out: AUC0-24h, Median) was 69.2 µg·h/mL, the Cmax (oral, 150 mg, phase 1, Day 1, 150 mg, read-out: Cmax, Mean) was 3720 ng/mL and the Cmax (oral, 150 mg, phase 1, Day 1, 150 mg, read-out: Cmax, Median) was 3790 ng/mL. For the same compound, the AUC(0-t) (oral, 150 mg, phase 1, Day 15, 150 mg, read-out: AUC0-24h, Mean) was 140 µg·h/mL, the AUC(0-t) (oral, 150 mg, phase 1, Day 15, 150 mg, read-out: AUC0-24h, Median) was 114 µg·h/mL and the Cmax (oral, 150 mg, phase 1, Day 15, 150 mg, read-out: Cmax, Mean) was 6700 ng/mL. The Cmax (oral, 150 mg, phase 1, Day 15, 150 mg, read-out: Cmax, Median) was 5410 ng/mL, the Tmax (oral, 150 mg, phase 1, Day 15, 150 mg, read-out: Tmax, Median) was 2.5 h and the AUC(0-t) (oral, 300 mg, phase 1, Day 1, 300 mg, read-out: AUC0-24h, Mean) was 87.1 µg·h/mL. The AUC(0-t) (oral, 300 mg, phase 1, Day 1, 300 mg, read-out: AUC0-24h, Median) was 98.2 µg·h/mL, the Cmax (oral, 300 mg, phase 1, Day 1, 300 mg, read-out: Cmax, Mean) was 5240 ng/mL and the Cmax (oral, 300 mg, phase 1, Day 1, 300 mg, read-out: Cmax, Median) was 5830 ng/mL. For the same compound, the AUC(0-t) (oral, 300 mg, phase 1, Day 15, 300 mg, read-out: AUC0-24h, Mean) was 133 µg·h/mL, the AUC(0-t) (oral, 300 mg, phase 1, Day 15, 300 mg, read-out: AUC0-24h, Median) was 134 µg·h/mL and the Cmax (oral, 300 mg, phase 1, Day 15, 300 mg, read-out: Cmax, Mean) was 6410 ng/mL. The Cmax (oral, 300 mg, phase 1, Day 15, 300 mg, read-out: Cmax, Median) was 6860 ng/mL, the AUC(0-t) (oral, 400 mg, phase 1, Day 1, 400 mg, read-out: AUC0-24h, Mean) was 127 µg·h/mL and the AUC(0-t) (oral, 400 mg, phase 1, Day 1, 400 mg, read-out: AUC0-24h, Median) was 118 µg·h/mL. For the same compound, the Cmax (oral, 400 mg, phase 1, Day 1, 400 mg, read-out: Cmax, Mean) was 6280 ng/mL, the Cmax (oral, 400 mg, phase 1, Day 1, 400 mg, read-out: Cmax, Median) was 5640 ng/mL and the Tmax (oral, 400 mg, phase 1, Day 1, 400 mg, read-out: Tmax, Median) was 8 h. The AUC(0-t) (oral, 400 mg, phase 1, Day 15, 400 mg, read-out: AUC0-24h, Mean) was 203 µg·h/mL, the AUC(0-t) (oral, 400 mg, phase 1, Day 15, 400 mg, read-out: AUC0-24h, Median) was 240 µg·h/mL and the Cmax (oral, 400 mg, phase 1, Day 15, 400 mg, read-out: Cmax, Mean) was 9770 ng/mL. It also gave a Cmax (oral, 400 mg, phase 1, Day 15, 400 mg, read-out: Cmax, Median) of 11700 ng/mL, an AUC(0-t) (oral, 500 mg, phase 1, Day 1, 500 mg, read-out: AUC0-24h, Mean) of 141 µg·h/mL and an AUC(0-t) (oral, 500 mg, phase 1, Day 1, 500 mg, read-out: AUC0-24h, Median) of 118 µg·h/mL. For the same compound, the Cmax (oral, 500 mg, phase 1, Day 1, 500 mg, read-out: Cmax, Mean) was 7050 ng/mL, the Cmax (oral, 500 mg, phase 1, Day 1, 500 mg, read-out: Cmax, Median) was 6310 ng/mL and the AUC(0-t) (oral, 500 mg, phase 1, Day 15, 500 mg, read-out: AUC0-24h, Mean) was 178 µg·h/mL. It also gave an AUC(0-t) (oral, 500 mg, phase 1, Day 15, 500 mg, read-out: AUC0-24h, Median) of 161 µg·h/mL, a Cmax (oral, 500 mg, phase 1, Day 15, 500 mg, read-out: Cmax, Mean) of 8730 ng/mL and a Cmax (oral, 500 mg, phase 1, Day 15, 500 mg, read-out: Cmax, Median) of 7990 ng/mL. It also gave an AUC(0-t) (oral, 600 mg, phase 1, Day 1, 600 mg, read-out: AUC0-24h, Mean) of 136 µg·h/mL, an AUC(0-t) (oral, 600 mg, phase 1, Day 1, 600 mg, read-out: AUC0-24h, Median) of 129 µg·h/mL and a Cmax (oral, 600 mg, phase 1, Day 1, 600 mg, read-out: Cmax, Mean) of 8330 ng/mL. For the same compound, the Cmax (oral, 600 mg, phase 1, Day 1, 600 mg, read-out: Cmax, Median) was 7880 ng/mL, the Tmax (oral, 600 mg, phase 1, Day 1, 600 mg, read-out: Tmax, Median) was 4.5 h and the AUC(0-t) (oral, 600 mg, phase 1, Day 15, 600 mg, read-out: AUC0-24h, Mean) was 161 µg·h/mL. It also gave an AUC(0-t) (oral, 600 mg, phase 1, Day 15, 600 mg, read-out: AUC0-24h, Median) of 161 µg·h/mL, a Cmax (oral, 600 mg, phase 1, Day 15, 600 mg, read-out: Cmax, Mean) of 9220 ng/mL and a Cmax (oral, 600 mg, phase 1, Day 15, 600 mg, read-out: Cmax, Median) of 8560 ng/mL. The Tmax (oral, phase 1, day 1, 100-600 mg, read-out: Median time to maximum concentration (Tmax), range over dose cohorts) was 4 to 8 h, the Tmax (oral, phase 1, day 15, 100-600 mg, read-out: Median time to maximum concentration (Tmax), range over dose cohorts) was 2.5 to 5 h and the AUC(0-t) (po, 200 mg, phase 1, Day 1, 200 mg (HCl and citrate salt cohorts pooled), read-out: AUC0-24h, Mean) was 93.3 µg·h/mL. The AUC(0-t) (po, 200 mg, phase 1, Day 1, 200 mg (HCl and citrate salt cohorts pooled), read-out: AUC0-24h, Median) was 87.3 µg·h/mL, the Cmax (po, 200 mg, phase 1, Day 1, 200 mg (HCl and citrate salt cohorts pooled), read-out: Cmax, Mean) was 5000 ng/mL and the Cmax (po, 200 mg, phase 1, Day 1, 200 mg (HCl and citrate salt cohorts pooled), read-out: Cmax, Median) was 4570 ng/mL. For the same compound, the Tmax (po, 200 mg, phase 1, Day 1, 200 mg (HCl and citrate salt cohorts pooled), read-out: Tmax, Median) was 5 h, the AUC(0-t) (po, 200 mg, phase 1, Day 15, 200 mg (HCl and citrate salt cohorts pooled), read-out: AUC0-24h, Mean) was 125 µg·h/mL and the AUC(0-t) (po, 200 mg, phase 1, Day 15, 200 mg (HCl and citrate salt cohorts pooled), read-out: AUC0-24h, Median) was 130 µg·h/mL. It also gave a Cmax (po, 200 mg, phase 1, Day 15, 200 mg (HCl and citrate salt cohorts pooled), read-out: Cmax, Mean) of 6700 ng/mL, a Cmax (po, 200 mg, phase 1, Day 15, 200 mg (HCl and citrate salt cohorts pooled), read-out: Cmax, Median) of 6450 ng/mL and a Tmax (po, 200 mg, phase 1, Day 15, 200 mg (HCl and citrate salt cohorts pooled), read-out: Tmax, Median) of 5 h. The “C24h, Mean” value (phase 1, Day 1, 100 mg) was 2440, the “C24h, Median” value (phase 1, Day 1, 100 mg) was 2318 and the “C24h, Mean” value (phase 1, Day 1, 150 mg) was 3113. The “C24h, Median” value (phase 1, Day 1, 150 mg) was 2316, the “C24h, Mean” value [1] was 3921 and the “C24h, Median” value [1] was 3026. For the same compound, the “C24h, Mean” value (phase 1, Day 1, 300 mg) was 4213, the “C24h, Median” value (phase 1, Day 1, 300 mg) was 3528 and the “C24h, Mean” value (phase 1, Day 1, 400 mg) was 5644. For the same compound, the “C24h, Median” value (phase 1, Day 1, 400 mg) was 4725, the “C24h, Mean” value (phase 1, Day 1, 500 mg) was 5899 and the “C24h, Median” value (phase 1, Day 1, 500 mg) was 4417. For the same compound, the “C24h, Mean” value (phase 1, Day 1, 600 mg) was 5093, the “C24h, Median” value (phase 1, Day 1, 600 mg) was 4136 and the “C24h, Mean” value (phase 1, Day 15, 100 mg) was 3945. The “C24h, Median” value (phase 1, Day 15, 100 mg) was 4322, the “C24h, Mean” value (phase 1, Day 15, 150 mg) was 5428 and the “C24h, Median” value (phase 1, Day 15, 150 mg) was 5026. For the same compound, the “C24h, Mean” value [2] was 4852, the “C24h, Median” value [2] was 4993 and the “C24h, Mean” value (phase 1, Day 15, 300 mg) was 4965. The “C24h, Median” value (phase 1, Day 15, 300 mg) was 4850, the “C24h, Mean” value (phase 1, Day 15, 400 mg) was 8429 and the “C24h, Median” value (phase 1, Day 15, 400 mg) was 10168. For the same compound, the “C24h, Mean” value (phase 1, Day 15, 500 mg) was 6550, the “C24h, Median” value (phase 1, Day 15, 500 mg) was 5685 and the “C24h, Mean” value (phase 1, Day 15, 600 mg) was 6439. The “C24h, Median” value (phase 1, Day 15, 600 mg) was 5417, the “Between-patient coefficient of variation for Cmax and AUC0–24” value (phase 1, day 1) was 25 to 63% and the “Dose proportionality of exposure (Cmax, C24, AUC0–24)” value (phase 1, day 1) was “less than dose-proportional”. For the same compound, the “Between-patient coefficient of variation for Cmax and AUC0–24” value (phase 1, day 15) was 20–54% and the “Dose dependence of exposure (Cmax, C24, AUC0–24)” value (phase 1, day 15) was “plateau above the 400 mg dose level”.
